Values quoted from earlier work, collected in paper PMC10341550, “Beta-Secretase 1 Recruits Amyloid-Beta Precursor Protein to ROCK2 Kinase, Resulting in Erroneous Phosphorylation and Beta-Amyloid Plaque Formation” (International Journal of Molecular Sciences, 2023).

Columns and labels:
Details in all cases: cited from earlier work
[1] = tested on: Aβ production in an AD mouse brain
Source text: Alzheimer’s disease is currently the leading cause of dementia, with no effective treatment. […] Although Aβ cannot account for all features of Alzheimer’s disease, reducing Aβ production or accumulation is a major therapeutic strategy to confront the disease. The accumulation of Aβ peptides in senile plaques is the consequence of pathological processing of APP. There are two major pathways of APP processing: a non-amyloidogenic pathway invo ...

ROCK2 = tested on: ROCK2
protein kinase CK2α = tested on: protein kinase CK2α
Source text: Despite decades of intensive research, there is no efficient drug to prevent or cure Alzheimer’s disease. […] During the processing of APP, its cleavage by BACE1 is the rate-limiting step [16]; therefore, the inhibition of BACE1 could be a trivial solution. The development of small molecular inhibitors against BACE1 was set back with a series of unwanted side effects. Previously, it was shown that pharmacological inhibition of ROCK2 activity diminishes sAPPβ pro ...

Compound | Aβ production [1] | ROCK2 inhibition selectivity (in words) (ROCK2) | inhibition of protein kinase CK2α (in words) (protein kinase CK2α)
CN(C)CCOc1cc(-c2cn[nH]c2)ccc1NC(=O)C1COc2ccccc2O1 (stereo not drawn) [SR3677] | diminished the production of Aβ in an AD mouse brain | – | –
CC(C)NC(=O)COc1cccc(-c2nc(Nc3ccc4[nH]ncc4c3)c3ccccc3n2)c1 [belumosudil] | – | highly selective | inhibition of the protein kinase CK2α
